Experimental data: patent publication US7622638B2, “Genetic manipulation of condensed tannins” (priority 2002, dated 2009)

Assays:
[1] = tested on: Anthocyanidin reductase (ANR); assay: Anthocyanidin reductase assay with desalted crude enzyme from Desmodium uncinatum tissues; format: biochemical; settings: 100 μM cyanidin, 1 mM NADPH
Method: (§1) Lotus corniculatus, Desmodium uncinatum and Barley cv. Morex were grown in a green house. Young leaves from L. corniculatus, unexpanded leaves, and young pods as well as open flowers and flower buds from D. uncinatum, and young grains from Barley were collected. Testa of barley grains were excised and pooled together for enzyme extraction. Mature grape fruit stored at −80° C. was treated in pH 7 100 mM Tris.HCl buffer for 30 seconds for isolated the skin for enzyme extraction.
(§2) A fresh one-gram leaf sample of L. corniculatus, one-gram testa from barley, and 9 grams of grape fruit skin, as well as two grams of flowers, 3 grams of young pods and 3 grams of young unexpanded leaves from Desmodium uncinatum were ground into homogenate fine powder in liquid nitrogen. The follow buffer systems were used for enzyme extraction. Extraction buffer 1: pH7 100 mM Tris.HCl, 10% glycerol and 2 mM 1,4-dithiothreitol; Extraction buffer 2: pH8 50 mM phosphate buffer, 10% glycerol, 1.5% polyethyleneglycerol 4000 (PEG-4000), 2 mM pH 8.0 Na-DETA, 25 mM sodium ascorbate, 20 mM β-mecaptoenthanol, and 5 mM 1,4-dithiothreitol; Extraction buffer 3: pH8 100 mM Tris.HCl, 10% glycerol 1.5% polyethyleneglycerol 4000 (PEG-4000), 2 mM pH 8.0 Na-DETA, 25 mM sodium ascorbate, 80 mM β-mecaptoenthanol, and 5 mM 1,4-dithiothreitol.
The homogenate powder of lotus leaf and barley testa tissue was suspended in 5 ml extraction buffer 1, in which 1% proteinase inhibitor (Sigma) (V/V) was added. The homogenate powder of flowers and pods from Desmodium was suspended in extraction buffer 2, also in which 1% proteinase inhibitor (Sigma) (V/V) was added. The fine powder of Desmodium leaves or grape fruit skin was respectively suspended in 6 ml or 50 ml extraction buffer 3, in which 1% proteinase inhibitor (Sigma) (V/V) is added. The homogenates were vortexed vigorously and stayed on ice for 5-10 mm, squeezed through microcloth into 50 ml tubes and then 1/5 (W/V) equilibrated Dowex 1×2 was added into collected squeezed mixture solution. […]

[2] = tested on: Anthocyanidin reductase; assay: Anthocyanidin reductase assay with desalted crude enzyme from grape fruit skin; format: biochemical, Vitis vinifer; settings: 100 μM cyanidin, 1 mM NADPH, 30° C. for 30 min
Method: as §1
as §2, with “1,4-dithiothreitol. […]” for “1,4-dithiothreitol.”

[3] = tested on: Anthocyanidin reductase; assay: Anthocyanidin reductase assay with desalted crude enzyme from barley testa tissue; format: biochemical, Hordeum vulgera (barley) cv. morex; settings: 100 μM cyanidin, 1 mM NADPH, 30° C. for 30 min
Method: as §1
as §2, with “1,4-dithiothreitol. […]” for “1,4-dithiothreitol.”

[4] = target: AtBAN (Arabidopsis thaliana, UniProt Q9SEV0); format: biochemical; settings: for reduction of anthocyanidin substrate to flavan-3-ol product by AtBAN: AtBAN protein extract (4 month old frozen), NADPH as coenzyme, HPLC; for conversion of flavan-3-ol into its isomer on incubation with AtBAN: in the presence of NADPH
[5] = tested on: Anthocyanidin reductase; assay: Anthocyanidin reductase assay with desalted crude enzyme from Lotus corniculatus leaves; format: biochemical; settings: young leaves; 100 μM cyanidin, 1 mM NADPH, 30° C. for 30 min
Method: as §1
as §2, with “1,4-dithiothreitol. […]” for “1,4-dithiothreitol.”

[6] = tested on: MtBAN; assay: Anthocyanidin reductase activity assay with recombinant MtBAN protein extract (HPLC of products); format: biochemical, Medicago truncatula; settings: for reduction of anthocyanidin substrate to flavan-3-ol product(s) by MtBAN: MtBAN protein extract, NADPH, Tris-HCl pH 7.0, 30° C. for 30 min, HPLC; for conversion of flavan-3-ol into its isomer on incubation with MtBAN: in the presence of NADPH
[7] = reactions containing leucoanthocyanidins, repeated attempts

AtBAN, sequence (Q9SEV0 other isoform, or with tags, fused parts or gaps K55Q/I146L/V156I/E157D/T179K/K185E): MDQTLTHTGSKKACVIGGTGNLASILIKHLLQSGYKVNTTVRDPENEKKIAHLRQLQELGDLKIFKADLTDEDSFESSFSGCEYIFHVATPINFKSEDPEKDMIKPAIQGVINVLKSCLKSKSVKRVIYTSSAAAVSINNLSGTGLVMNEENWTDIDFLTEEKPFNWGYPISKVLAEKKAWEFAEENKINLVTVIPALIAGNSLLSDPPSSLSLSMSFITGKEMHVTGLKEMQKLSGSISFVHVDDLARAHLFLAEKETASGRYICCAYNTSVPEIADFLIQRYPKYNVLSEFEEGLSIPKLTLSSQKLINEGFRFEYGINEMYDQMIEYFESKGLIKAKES

Oc1cc(O)c2cc(O)c(-c3ccc(O)c(O)c3)[o+]c2c1.[Cl-] [cyanidin, cyanidin chloride]
conversion of cyanidin by extract with NADPH ([1]; ANR from flowers): producing epicatechin
conversion of cyanidin by extract with NADPH ([1]; ANR from leaves): producing epicatechin
conversion of cyanidin by extract with NADPH ([1]; ANR from young pods): producing epicatechin
conversion of cyanidin by extract with NADPH [2]: producing epicatechin
conversion of cyanidin by extract with NADPH [3]: producing epicatechin
reduction of anthocyanidin substrate to flavan-3-ol product by AtBAN [4]: reduction of cyanidin to epicatechin
conversion of cyanidin by extract with NADPH [5]: producing epicatechin
reduction of anthocyanidin substrate to flavan-3-ol product(s) by MtBAN [6]: reducing cyanidin to the corresponding flavan-3-ols, catechin and epicatechin

leucoanthocyanidins
LAR activity with recombinant AtBAN [4, 7]: no LAR activity was observed
LAR activity with recombinant MtBAN [6, 7]: no LAR activity was observed

Oc1cc(O)c2cc(O)c(-c3cc(O)c(O)c(O)c3)[o+]c2c1 [delphinidin, delphinidin chloride]
reduction of anthocyanidin substrate to flavan-3-ol product by AtBAN [4]: delphinidin into gallocatechin
reduction of anthocyanidin substrate to flavan-3-ol product(s) by MtBAN [6]: catalyzed the reduction of delphinidin into putative gallo-catechin and epi-gallocatechin

Oc1cc(O)c2c(c1)O[C@H](c1ccc(O)c(O)c1)[C@H](O)C2 [(−) epicatechin, (−)-epicatechin]
conversion of flavan-3-ol into its isomer on incubation with AtBAN [4]: does not produce
conversion of flavan-3-ol into its isomer on incubation with MtBAN [6]: does not produce

NC(=O)C1=CN([C@@H]2O[C@H](COP(=O)(O)OP(=O)(O)OC[C@H]3O[C@@H](n4cnc5c(N)ncnc54)[C@H](OP(=O)(O)O)[C@@H]3O)[C@@H](O)[C@H]2O)C=CC1 [NADPH]
co-factor dependence of conversion of anthocyanidins to flavan-3-ols ([6]; NADPH omitted from the enzyme assay mixtures): NADPH-dependent

Oc1cc(O)c2c(c1)O[C@H](c1ccc(O)c(O)c1)[C@@H](O)C2 [(+)-catechin]
conversion of flavan-3-ol into its isomer on incubation with AtBAN [4]: does not produce
conversion of flavan-3-ol into its isomer on incubation with MtBAN [6]: does not produce

Oc1ccc(-c2[o+]c3cc(O)cc(O)c3cc2O)cc1 [pelargonidin, Pelargonidin chloride]
reduction of anthocyanidin substrate to flavan-3-ol product by AtBAN [4]: pelargonidin into epi-alfzelechin
reduction of anthocyanidin substrate to flavan-3-ol product(s) by MtBAN [6]: tentatively identified as epi-afzelechin

NC(=O)C1=CN([C@@H]2O[C@H](COP(=O)(O)OP(=O)(O)OC[C@H]3O[C@@H](n4cnc5c(N)ncnc54)[C@H](O)[C@@H]3O)[C@@H](O)[C@H]2O)C=CC1 [NADH]
conversion with NADH relative to the level achieved with NADPH at the same concentration ([6]; NADH 2 mM final concentration substituted for NADPH): approximately 50%
